# Data taken from patent US20220411439A1, “POLYMORPHS OF A MACROCYCLIC KINASE INHIBITOR” (TURNING POINT THERAPEUTICS, INC., priority 2019, published 2022).
# Like-named read-outs stand apart in the source and are kept apart here.
# What was measured:
# Ba/F3 KIF5B-RET G810C = target: T1, Ba/F3 KIF5B-RET G810C (Homo sapiens, UniProt P07949, G810C); experiment: RET-G810C autophosphorylation (Y905) by immunoblotting in Ba/F3 engineered cells; format: cell-based; details: 4 hours incubation, read-out: IC50, RET-G810C phosphorylation at residue Y905
# T1 construct: KIF5B fragment (fusion partner); expressed in transfected cells; host or cells: Ba/F3 cells, lentiviral transduction (pCDH-CMV-MCS-EF1-Puro); the other entry of the earlier key: KIF5B (P33176, Kinesin-1 heavy chain)
# KM12 cell (TPM3-TRKA) = experiment: Cell proliferation assay (CellTiter-Glo); format: cell-based; details: Homo sapiens, anti-cell proliferation, 72 hours
# Description: (§1) Human medulla thyroid carcinoma cell line TT (containing RET M918T mutation) and acute myelogenous cell line KG-1 were purchased from ATCC. Human colon cancer cell line KM12 (containing TPM3-TRKA) was obtained from NCI. Two thousand cells per well were seeded in 384 well white plate for 24 hrs, and then treated with compounds for 72 hours (37° C., 5% CO2). Cell proliferation was measured using CellTiter-Glo luciferase-based ATP detection assay (Promega) following the manufactures's protocol. IC50 determinations were performed using GraphPad Prism software (GraphPad, Inc., San Diego, Calif.).
# KG-1 = experiment: Cell proliferation assay (CellTiter-Glo); format: cell-based; details: Homo sapiens, anti-cell proliferation, 72 hours
# Description: as §1
# TT cell (RET M918T) = experiment: Cell proliferation assay (CellTiter-Glo); format: cell-based; details: Homo sapiens, anti-cell proliferation, 72 hours
# Description: as §1
# Ba/F3 KIF5B-RET = target: T2, Ba/F3 KIF5B-RET (Homo sapiens, UniProt P07949, cells depend on it, form not given); experiment: Compound I anti-cell proliferation comparison (FIG. 5A, 5B); format: cell-based; details: for GI50: read-out: IC50 (the source's name)
# T2 construct: IC50 (nM); other: Experiment 1; other: Experiment 2; fused on or other part: P33176 (Kinesin-1 heavy chain)
# From the text: (§2) The KIF5B-RET gene was synthesized at GenScript and cloned into pCDH-CMV-MCS-EF1-Puro plasmid (System Biosciences, Inc). KIF5B-RET point mutation V804M and G810C were generated at GenScript by PCR and confirmed by sequencing. Ba/F3-KIF5B-RET wild type and mutant were generated by transducing Ba/F3 cells with lentivirus containing KIF5B-RET wide type or mutant. Stable cell lines were selected by puromycin treatment, followed by IL-3 withdrawal. Briefly, 5×10^6 Ba/F3 cells were transduced with lentivirus supernatant in the presence of 8 μg/mL protamine sulfate. The transduced cells were subsequently selected with 1 μg/mL puromycin in the presence of IL3-containing medium RPMI1640, plus 10% FBS. After 10-12 days of selection, the surviving cells were further selected for […] independent growth.
# (§3) Two thousand cells per well were seeded in 384 well white plate for 24 hrs, and then treated with compounds for 72 hours (37° C., 5% CO2). Cell proliferation was measured using CellTiter-Glo luciferase-based ATP detection assay (Promega) following the manufactures's protocol. IC50 determinations were performed using GraphPad Prism software (GraphPad, Inc., San Diego, Calif.).
# RET-NCOA4 (PTC3) = target: T3, RET-NCOA4 (PTC3) (Homo sapiens, UniProt P07949); experiment: Biochemical kinase assay; details: 10 μM ATP
# T3 construct: NCOA4 fragment (fusion partner); purchased Reaction Biology Corporation (contract assay)
# Description: (§4) Specific kinase/substrate pairs along with required cofactors were prepared in reaction buffer; 20 mM Hepes pH 7.5, 10 mM MgCl2, 1 mM EGTA, 0.02% Brij35, 0.02 mg/ml BSA, 0.1 mM Na3VO4, 2 mM DTT, 1% DMSO. Compounds were delivered into the reaction, followed ˜20 minutes later by addition of a mixture of ATP (Sigma, St. Louis Mo.) and ^33P ATP (Perkin Elmer, Waltham Mass.) to a final concentration of 10 μM. Reactions were carried out at room temperature for 120 min, followed by spotting of the reactions onto P81 ion exchange filter paper (Whatman Inc., Piscataway, N.J.). Unbound phosphate was removed by extensive washing of filters in 0.75% phosphoric acid. […] IC50 values and curve fits were obtained using Prism (GraphPad Software).
# YES/YES1 = target: T4, YES/YES1 (Homo sapiens, UniProt P07947); experiment: Biochemical kinase assay; details: 10 μM ATP
# T4 construct: purchased Reaction Biology Corporation (contract assay)
# Description: as §4
# RET = target: T5, RET (Homo sapiens, UniProt P07949); experiment: Biochemical kinase assay; details: 10 μM ATP
# T5 construct: purchased Reaction Biology Corporation (contract assay)
# Description: as §4
# SRC = target: T6, SRC (Homo sapiens, UniProt P12931); experiment: Biochemical kinase assay; details: 10 μM ATP
# T6 construct: purchased Reaction Biology Corporation (contract assay)
# Description: as §4
# FYN = target: T7, FYN (Homo sapiens, UniProt P06241); experiment: Biochemical kinase assay; details: 10 μM ATP
# T7 construct: purchased Reaction Biology Corporation (contract assay)
# Description: as §4
# HCK = target: T8, HCK (Homo sapiens, UniProt P08631); experiment: Biochemical kinase assay; details: 10 μM ATP
# T8 construct: purchased Reaction Biology Corporation (contract assay)
# Description: as §4
# LYN = target: T9, LYN (Homo sapiens, UniProt P07948); experiment: Biochemical kinase assay; details: 10 μM ATP
# T9 construct: purchased Reaction Biology Corporation (contract assay)
# Description: as §4
# Ba/F3 EML4-ALK = target: T10, Ba/F3 EML4-ALK (Homo sapiens, UniProt Q9UM73); experiment: Cell proliferation assay (CellTiter-Glo); format: cell-based; details: anti-cell proliferation, 72 hours
# T10 construct: fused on or other part: Q9HC35 (Echinoderm microtubule-associated protein-like 4)
# Description: The EML4-ALK gene (variant 1) was synthesized at GenScript and cloned into pCDH-CMV-MCS-EF1-Puro plasmid (System Biosciences, Inc). Ba/F3-EML4-ALK wild type were generated by transducing Ba/F3 cells with lentivirus containing EML4-ALK wide type. Stable cell lines were selected by puromycin treatment, followed by IL-3 withdrawal. Briefly, 5×10^6 Ba/F3 cells were transduced with lentivirus supernatant in the presence of 8 μg/mL protamine sulfate. The transduced cells were subsequently selected with 1 μg/mL puromycin in the presence of IL3-containing medium RPMI1640, plus 10% FBS. After 10-12 days of selection, the surviving cells were further selected for IL3 independent growth.
# as §3
# Ba/F3 KIF5B-RET_G810C = target: T11, Ba/F3 KIF5B-RET_G810C (Homo sapiens, UniProt P07949, G810C, cells depend on it); experiment: Cell proliferation assay (CellTiter-Glo); format: cell-based; details: anti-cell proliferation, 72 hours; read-out: Ba/F3 KIF5B-RET_G810C IC50
# T11 construct: fused on or other part: P33176 (Kinesin-1 heavy chain)
# From the text: as §2, §3
# T2 sequence (P07949 whole entry G810C, form open, the tested form may be a part): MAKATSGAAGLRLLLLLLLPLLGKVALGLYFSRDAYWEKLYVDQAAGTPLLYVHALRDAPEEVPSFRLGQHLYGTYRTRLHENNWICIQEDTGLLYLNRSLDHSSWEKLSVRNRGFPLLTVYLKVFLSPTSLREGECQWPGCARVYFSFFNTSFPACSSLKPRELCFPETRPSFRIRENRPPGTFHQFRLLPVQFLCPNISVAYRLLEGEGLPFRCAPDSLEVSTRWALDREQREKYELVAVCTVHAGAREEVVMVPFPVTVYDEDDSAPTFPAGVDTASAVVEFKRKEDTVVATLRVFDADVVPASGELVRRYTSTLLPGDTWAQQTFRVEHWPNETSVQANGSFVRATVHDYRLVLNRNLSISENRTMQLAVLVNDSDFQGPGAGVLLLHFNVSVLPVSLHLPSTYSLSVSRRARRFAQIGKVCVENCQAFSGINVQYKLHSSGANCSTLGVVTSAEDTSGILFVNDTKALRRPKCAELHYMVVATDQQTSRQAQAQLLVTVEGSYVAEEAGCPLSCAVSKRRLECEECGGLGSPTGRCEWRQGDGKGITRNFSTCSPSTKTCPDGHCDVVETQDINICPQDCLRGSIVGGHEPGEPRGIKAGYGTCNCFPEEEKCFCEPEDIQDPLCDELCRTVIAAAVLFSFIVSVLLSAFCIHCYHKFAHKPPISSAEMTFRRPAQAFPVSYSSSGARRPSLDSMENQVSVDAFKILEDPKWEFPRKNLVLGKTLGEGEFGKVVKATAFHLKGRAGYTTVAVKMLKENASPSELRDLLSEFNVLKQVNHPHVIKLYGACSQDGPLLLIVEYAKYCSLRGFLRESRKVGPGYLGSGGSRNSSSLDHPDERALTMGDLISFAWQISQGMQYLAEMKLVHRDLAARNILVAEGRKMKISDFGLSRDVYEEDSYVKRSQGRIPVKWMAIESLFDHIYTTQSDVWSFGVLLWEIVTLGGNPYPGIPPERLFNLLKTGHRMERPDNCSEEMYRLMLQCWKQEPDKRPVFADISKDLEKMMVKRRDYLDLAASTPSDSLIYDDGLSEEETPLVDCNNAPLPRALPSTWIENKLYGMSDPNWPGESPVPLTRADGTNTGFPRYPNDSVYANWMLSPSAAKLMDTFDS
# T1 sequence (P07949 713-1063 G810C limits assumed): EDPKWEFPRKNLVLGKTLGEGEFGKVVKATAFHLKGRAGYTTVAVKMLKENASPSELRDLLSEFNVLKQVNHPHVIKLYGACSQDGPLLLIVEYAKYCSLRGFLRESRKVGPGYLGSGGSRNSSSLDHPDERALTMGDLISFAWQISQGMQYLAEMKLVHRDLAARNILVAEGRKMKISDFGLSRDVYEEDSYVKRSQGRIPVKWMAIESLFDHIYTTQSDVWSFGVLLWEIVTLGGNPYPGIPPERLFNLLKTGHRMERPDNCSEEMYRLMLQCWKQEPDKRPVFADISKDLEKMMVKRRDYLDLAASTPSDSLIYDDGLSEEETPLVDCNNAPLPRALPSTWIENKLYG
# T4 sequence (P07947 whole entry): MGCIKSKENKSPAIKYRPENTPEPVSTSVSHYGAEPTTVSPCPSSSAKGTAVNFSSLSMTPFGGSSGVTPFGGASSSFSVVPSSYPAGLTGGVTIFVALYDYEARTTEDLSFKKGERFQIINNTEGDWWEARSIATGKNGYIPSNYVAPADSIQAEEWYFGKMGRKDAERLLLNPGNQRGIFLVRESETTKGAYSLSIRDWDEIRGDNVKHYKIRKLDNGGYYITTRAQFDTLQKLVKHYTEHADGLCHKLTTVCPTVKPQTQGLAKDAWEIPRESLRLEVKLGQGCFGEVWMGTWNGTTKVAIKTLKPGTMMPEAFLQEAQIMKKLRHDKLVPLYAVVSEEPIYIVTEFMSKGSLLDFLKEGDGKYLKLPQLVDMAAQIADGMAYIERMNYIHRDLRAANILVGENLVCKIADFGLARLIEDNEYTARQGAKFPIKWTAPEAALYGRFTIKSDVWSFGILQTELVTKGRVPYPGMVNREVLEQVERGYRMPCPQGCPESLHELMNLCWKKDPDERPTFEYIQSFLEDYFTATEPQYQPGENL
# T6 sequence (P12931 whole entry): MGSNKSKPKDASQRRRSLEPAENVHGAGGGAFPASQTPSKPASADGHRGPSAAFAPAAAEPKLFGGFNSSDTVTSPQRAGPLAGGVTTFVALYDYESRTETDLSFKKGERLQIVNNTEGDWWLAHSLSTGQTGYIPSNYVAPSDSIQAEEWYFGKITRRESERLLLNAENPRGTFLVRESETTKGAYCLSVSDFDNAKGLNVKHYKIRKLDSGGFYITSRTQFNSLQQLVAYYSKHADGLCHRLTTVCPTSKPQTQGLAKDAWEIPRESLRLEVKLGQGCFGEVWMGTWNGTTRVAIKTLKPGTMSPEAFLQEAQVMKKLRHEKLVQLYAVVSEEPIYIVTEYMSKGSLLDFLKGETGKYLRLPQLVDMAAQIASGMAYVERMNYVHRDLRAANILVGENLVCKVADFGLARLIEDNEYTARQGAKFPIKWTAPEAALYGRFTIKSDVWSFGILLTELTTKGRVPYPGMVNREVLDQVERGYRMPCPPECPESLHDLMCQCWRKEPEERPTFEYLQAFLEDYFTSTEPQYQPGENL
# T7 sequence (P06241 whole entry): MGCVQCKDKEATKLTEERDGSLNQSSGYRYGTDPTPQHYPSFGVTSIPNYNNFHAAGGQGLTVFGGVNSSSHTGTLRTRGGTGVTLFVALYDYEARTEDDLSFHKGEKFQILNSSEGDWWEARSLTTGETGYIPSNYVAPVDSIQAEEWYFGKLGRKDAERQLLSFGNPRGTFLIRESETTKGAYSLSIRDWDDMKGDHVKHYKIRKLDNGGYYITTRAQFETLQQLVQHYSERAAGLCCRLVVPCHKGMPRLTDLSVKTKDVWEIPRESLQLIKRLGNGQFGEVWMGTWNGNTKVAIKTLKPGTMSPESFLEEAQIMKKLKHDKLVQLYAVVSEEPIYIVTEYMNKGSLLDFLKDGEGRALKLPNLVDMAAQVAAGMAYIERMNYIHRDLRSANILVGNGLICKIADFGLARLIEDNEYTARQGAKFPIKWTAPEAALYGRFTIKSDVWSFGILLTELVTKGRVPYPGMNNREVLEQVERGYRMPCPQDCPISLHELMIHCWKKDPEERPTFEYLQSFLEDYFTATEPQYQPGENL
# T5 sequence (P07949 29-1114): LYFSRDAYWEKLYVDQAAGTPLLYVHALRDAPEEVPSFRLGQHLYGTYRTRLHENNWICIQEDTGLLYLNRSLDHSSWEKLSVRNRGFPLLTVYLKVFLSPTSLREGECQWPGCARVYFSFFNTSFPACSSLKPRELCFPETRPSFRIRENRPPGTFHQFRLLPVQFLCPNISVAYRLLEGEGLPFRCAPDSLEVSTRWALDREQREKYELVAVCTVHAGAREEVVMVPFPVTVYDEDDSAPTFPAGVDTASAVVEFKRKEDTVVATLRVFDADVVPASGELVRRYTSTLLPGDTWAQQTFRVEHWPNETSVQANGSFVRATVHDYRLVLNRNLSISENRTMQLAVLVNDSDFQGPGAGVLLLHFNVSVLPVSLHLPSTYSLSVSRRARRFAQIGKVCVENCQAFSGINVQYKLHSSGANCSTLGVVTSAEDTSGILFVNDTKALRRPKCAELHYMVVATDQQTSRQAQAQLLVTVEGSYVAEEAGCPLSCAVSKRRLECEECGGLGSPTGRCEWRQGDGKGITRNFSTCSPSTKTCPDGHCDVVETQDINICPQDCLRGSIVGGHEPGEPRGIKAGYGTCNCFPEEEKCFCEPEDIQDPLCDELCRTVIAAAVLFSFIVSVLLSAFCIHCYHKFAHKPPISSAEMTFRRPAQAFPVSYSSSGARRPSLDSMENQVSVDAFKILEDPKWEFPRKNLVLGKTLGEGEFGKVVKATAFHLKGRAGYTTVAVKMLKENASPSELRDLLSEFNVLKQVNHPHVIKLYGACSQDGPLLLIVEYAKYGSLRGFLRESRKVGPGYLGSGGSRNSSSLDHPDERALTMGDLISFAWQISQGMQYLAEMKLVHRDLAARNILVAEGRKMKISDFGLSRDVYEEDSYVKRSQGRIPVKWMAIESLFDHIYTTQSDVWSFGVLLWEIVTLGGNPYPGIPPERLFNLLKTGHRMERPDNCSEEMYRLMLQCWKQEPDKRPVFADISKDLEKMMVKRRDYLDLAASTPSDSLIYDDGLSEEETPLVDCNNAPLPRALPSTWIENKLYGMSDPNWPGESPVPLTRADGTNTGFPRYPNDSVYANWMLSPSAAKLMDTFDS
# T11 sequence (P07949 whole entry G810C, the tested form may be a part): as the sequence (P07949 whole entry G810C, form open, the tested form may be a part) above
# T9 sequence (P07948 whole entry): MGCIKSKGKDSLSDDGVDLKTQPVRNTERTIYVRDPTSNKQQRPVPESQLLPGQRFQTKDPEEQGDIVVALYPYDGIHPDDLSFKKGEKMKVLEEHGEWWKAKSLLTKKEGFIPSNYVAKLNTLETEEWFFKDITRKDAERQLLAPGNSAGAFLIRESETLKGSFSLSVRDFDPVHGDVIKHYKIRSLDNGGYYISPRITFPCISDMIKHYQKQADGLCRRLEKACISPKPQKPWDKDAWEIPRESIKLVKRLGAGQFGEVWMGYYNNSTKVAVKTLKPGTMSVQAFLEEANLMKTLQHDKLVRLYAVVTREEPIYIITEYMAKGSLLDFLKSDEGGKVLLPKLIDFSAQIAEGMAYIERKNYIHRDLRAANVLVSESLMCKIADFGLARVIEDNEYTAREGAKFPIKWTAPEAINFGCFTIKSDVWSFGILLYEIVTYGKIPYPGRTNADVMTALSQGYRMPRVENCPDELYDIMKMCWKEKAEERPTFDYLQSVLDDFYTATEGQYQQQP
smiles,measurement,setting,value
"C[C@H]1CNC(=O)c2cnn3cc4c(nc23)N(Cc2cc(F)cnc2O1)[C@@H]1CCC[C@@H]1O4 [Compound I, (3aR,11S,20aS)-7-fluoro-11-methyl-2,3,3a,12,13,20a-hexahydro-1H,5H-17,19-(metheno)cyclopenta[5,6][1,4]oxazino[3,4-i]pyrazolo[4,3-f]pyrido[3,2-l][1,4,8,10]oxatriazacyclotridecin-14(11H)-one]",IC50,Ba/F3 KIF5B-RET G810C,1 to 3 nM
same,IC50,KM12 cell (TPM3-TRKA),3 nM
same,IC50,KG-1,131 nM
same,IC50,TT cell (RET M918T),< 0.5 nM
same,IC75,Ba/F3 KIF5B-RET; Experiment 1,28.8 nM
same,IC90,Ba/F3 KIF5B-RET; Experiment 1,86.4 nM
same,GI50,Ba/F3 KIF5B-RET; Experiment 1,9.6 nM
same,IC75,Ba/F3 KIF5B-RET; Experiment 2,39.9 nM
same,IC90,Ba/F3 KIF5B-RET; Experiment 2,120 nM
same,GI50,Ba/F3 KIF5B-RET; Experiment 2,13.3 nM
same,IC50,RET-NCOA4 (PTC3),0.7 nM
same,IC50,YES/YES1,2.6 nM
same,IC50,RET,1 nM
same,IC50,SRC,1.5 nM
same,IC50,FYN,1.9 nM
same,IC50,HCK,2.7 nM
same,IC50,LYN,2 nM
same,GI50,Ba/F3 EML4-ALK,211 nM
same,GI50,Ba/F3 KIF5B-RET_G810C,< 15 nM
